In patent publication US20070128265A1, “Regulation of cell proliferation and differentiation using topically applied peptides” (priority 2000, published 2007):

Columns and labels:
psoriatic lesion = test: One patient with chronic psoriasis: topical PTH (1-34) followed by calcipotriene cream; format: in vivo
Excerpt: One patient with chronic psoriasis received topically PTH (1-34) for two months. […] The patient returned two weeks later and, on the lesion treated with PTH (1-34) and the placebo lesion, received topically calcipotriene cream. […] Therefore, the combination therapy of PTH (1-34) followed by calcipotriene or other activated vitamin D compounds can be an effective therapeutic approach for treating psoriasis.

mammalian cells = settings: U.S. Pat. Nos. 5,527,772, 5,840,690 and 6,066,618; agonists or antagonists of PTH and PTHrP; cited from earlier work
psoriatic lesions = test: Double blind placebo controlled trial in chronic psoriasis, clinical improvement of lesions; format: in vivo, patients; settings: 20 μg/0.1 ml in Novasome topically, two months
Excerpt: Nine patients with chronic psoriasis were enrolled in a double blind placebo controlled trial. […] The percentage of clinical improvement of scaling, erythema, and induration for the lesion treated with placebo was 17.2, 15, and 30%, respectively. For the lesion treated with PTH (1-34), there was a marked improvement in scaling of 30.9%, erythema 34%, and induration 52%, respectively.

hair follicle cells = test: BRDU staining of hair follicle cells in depilated C57 BL/6 mice; format: in vivo; settings: 10 μg in 30 μl Novasome topically daily for seven days
Procedure: (§1) C57 BL/6 were purchased from Jackson Labs and were in their telogen state of hair development. The animals were depilated as previously described (1). Groups of six animals received daily a topical application of either 10 μg of PTH (1-34) in 30 μl of Novasome or their depilatated backs, 10 μg of PTH (7-34)/30 μl of Novasome, or 30 μl of Novasome. The animals were dosed daily for seven days. Macroscopic evaluation and tritiated thymidine and bromouridine analysis was made on day seven as previously described (1, 2, 3, 4).

epidermis = test: Tritiated thymidine incorporation into epidermal DNA in SKH-1 hairless mice; format: in vivo
Procedure: SKH-1 hairless mice received topically daily for 60 days either 10 μg of PTH (1-34) formulated in Novasome A, PTH (7-34) formulated in Novasome A, or Novasome A without any PTH analog to serve as the control group. The animals received ^3H-tritiated thymidine for the evaluation of epidermal proliferation as previously described.

[1] = system: epidermis of psoriatic lesions; test: Skin biopsies of psoriatic lesions: hemotoxilin and eosin staining, immunohistochemistry for PCNA and transglutaminase; format: in vivo, patients; settings: treated lesions compared to placebo treated lesions, two months
hair follicles = test: Macroscopic evaluation of hair cycle progression in depilated C57 BL/6 mice; format: in vivo; settings: for hair growth progression (progression of hair follicles into anagen), macroscopic evaluation: 10 μg in 30 μl Novasome topically daily for seven days
Procedure: as §1

With `C=C1/C(=C\C=C2/CCC[C@]3(C)[C@@H]([C@H](C)/C=C/[C@@H](O)C4CC4)CC[C@@H]23)C[C@@H](O)C[C@@H]1O` [calcipotriene, reference compound] as the molecule, how does the “response of psoriatic lesion after two months of topical calcipotriene cream” value (psoriatic lesion; lesion pretreated two months with PTH (1-34) or with Novasome placebo) read?
Its value is “no significant improvement”.

Which “effect on proliferation and differentiation of mammalian cells” value (mammalian cells) does the source give for “PTH (1-34): parathyroid hormone fragment (1-34), agonist peptide; tested topically formulated in Novasome A liposomes” here?
Its value is “inhibit proliferation and enhance differentiation of mammalian cells”.

What about the “percentage of clinical improvement of erythema” value (psoriatic lesions) of the same molecule?
Its value is 34%.

What about the “percentage of clinical improvement of induration” value (psoriatic lesions) of the same molecule?
Its value is 52%.

And the “percentage of clinical improvement of scaling” value (psoriatic lesions)?
Its value is 30.9%.

What about the “BRDU staining of the hair follicles” value (hair follicle cells) of the same molecule?
The value was “demonstrated a decrease”.

What about the “response of psoriatic lesion” value (psoriatic lesion; topical PTH (1-34) for two months) of the same molecule?
The value was “minimal response”.

And the “decrease in DNA synthesis (proliferation) compared to the control group” value (epidermis; 10 μg topically daily for 60 days in Novasome A, 3H-thymidine)?
Its value is 25%.

And the “PCNA staining in skin biopsies” value [1]?
The value was “restoration of the PCNA staining in the basal layer”.

And the “proliferation of the epidermis in skin biopsies” value [1]?
The value was “marked decrease in the proliferation of the epidermis”.

What about the “transglutaminase staining in skin biopsies” value [1] of the same molecule?
Its value is “restoration of transglutaminase staining in the upper granular layer”.

And the “hair growth progression (progression of hair follicles into anagen), macroscopic evaluation” value (hair follicles)?
The value was “decrease in hair growth progression”.

For “PTH (3-34): parathyroid hormone fragment (3-34), agonist of PTH and PTHrP (SEIQLMHNLGKHLNSMERVEWLRKKLQDVHNF; Parathyroid hormone; UniProt P01270 34-65, looked up, fragment)”, which “effect on proliferation and differentiation of mammalian cells” value (mammalian cells) is on record?
Its value is “inhibit proliferation and enhance differentiation of mammalian cells”.

Which “effect on proliferation and differentiation of mammalian cells” value (mammalian cells) does the source give for “PTH (7-34): parathyroid hormone fragment (7-34), antagonist peptide; tested topically formulated in Novasome A liposomes (LMHNLGKHLNSMERVEWLRKKLQDVHNF; Parathyroid hormone Novasome A liposome formulation; UniProt P01270 38-65, looked up, fragment)” here?
Its value is “enhance the proliferation of mammalian cells”.

And the “BRDU staining of the hair follicles” value (hair follicle cells)?
The value was “increase in BRDU staining of the hair follicle”.

What about the “enhancement in DNA synthesis (proliferation) compared to the control group” value (epidermis; 10 μg topically daily for 60 days in Novasome, 3H-thymidine in the epidermis) of the same molecule?
The value was “more than two fold enhancement”.

And the “hair growth progression (progression of hair follicles into anagen), macroscopic evaluation” value (hair follicles)?
Its value is “increase in the progression of the hair follicles into their proliferative anagen state”.

What about the “increase in the anagen area” value (hair follicles; 10 μg topically daily for seven days, formulated in Novasome A) of the same molecule?
Its value is 155%.

For “PTHrP (1-34): parathyroid related peptide fragment (1-34), agonist of PTH and PTHrP”, which “effect on proliferation and differentiation of mammalian cells” value (mammalian cells) is on record?
Its value is “inhibit proliferation and enhance differentiation of mammalian cells”.

With “PTHrP (7-34): parathyroid related peptide fragment (7-34), antagonist of PTH and PTHrP” as the molecule, how does the “effect on proliferation and differentiation of mammalian cells” value (mammalian cells) read?
The value was “enhance the proliferation of mammalian cells”.
